Measurements as given in patent publication US8722718B2, “Inhibitors of C-FMS kinase” (Janssen Pharmaceutica NV, priority 2006, dated 2014).

Tests used:
[1] = system: mouse bone-marrow derived macrophages (BMDM); assay: CSF-1-driven mouse bone-marrow derived macrophages proliferation assay (BrDU incorporation); type: cell-based; details: mCSF driven proliferation, read-out: mCSF driven proliferation BMDM (Mouse) IC-50
Procedure: CSF-1-Driven Mouse Bone-Marrow Derived Macrophages Assay
Macrophages are derived by culturing mouse bone marrow in alpha-MEM supplemented with 10% FCS and 50 ng/ml recombinant mouse CSF-1 in bacteriologic dishes. On the sixth day, macrophages are detached from dishes, washed, and resuspended to 0.05 million cells/ml in alpha-MEM containing 10% FCS. One hundred ul of cell suspension are distributed per well into 96 well culture plates. Wells are further supplemented with the addition of 50 ul media containing 15 ng/ml CSF-1, 3 uM Indomethacin, and 3× of a dilution series of test compounds. The cells are cultured for 30 hrs at 37 degrees and 5% CO2. During the final six hours, cultures are supplemented with an additional 30 ul of media containing a 1:500 dilution of bromodeoxyuridine (BrDU). At the end of the culture period, the plates are spun at 1000 RPM for 1 minute and 130 ul of media is removed with a pipet and replaced with 150 ul of fixative solution for 1 hour @ room temperature. The fixative is then dispelled from the plates and the plates allowed to air dry. Incorporation of BrDU into the fixed, dried cells is quantified using a specific ELISA.

c-fms = c-fms (Homo sapiens (Human), UniProt P07333); assay: c-fms autophosphorylation fluorescence polarization competition immunoassay (1 nM c-fms; peptide Pi assay); type: biochemical; details: read-out: 1 nM c-fms, peptide Pi assay IC-50
Sequence of c-fms (P07333 20-972): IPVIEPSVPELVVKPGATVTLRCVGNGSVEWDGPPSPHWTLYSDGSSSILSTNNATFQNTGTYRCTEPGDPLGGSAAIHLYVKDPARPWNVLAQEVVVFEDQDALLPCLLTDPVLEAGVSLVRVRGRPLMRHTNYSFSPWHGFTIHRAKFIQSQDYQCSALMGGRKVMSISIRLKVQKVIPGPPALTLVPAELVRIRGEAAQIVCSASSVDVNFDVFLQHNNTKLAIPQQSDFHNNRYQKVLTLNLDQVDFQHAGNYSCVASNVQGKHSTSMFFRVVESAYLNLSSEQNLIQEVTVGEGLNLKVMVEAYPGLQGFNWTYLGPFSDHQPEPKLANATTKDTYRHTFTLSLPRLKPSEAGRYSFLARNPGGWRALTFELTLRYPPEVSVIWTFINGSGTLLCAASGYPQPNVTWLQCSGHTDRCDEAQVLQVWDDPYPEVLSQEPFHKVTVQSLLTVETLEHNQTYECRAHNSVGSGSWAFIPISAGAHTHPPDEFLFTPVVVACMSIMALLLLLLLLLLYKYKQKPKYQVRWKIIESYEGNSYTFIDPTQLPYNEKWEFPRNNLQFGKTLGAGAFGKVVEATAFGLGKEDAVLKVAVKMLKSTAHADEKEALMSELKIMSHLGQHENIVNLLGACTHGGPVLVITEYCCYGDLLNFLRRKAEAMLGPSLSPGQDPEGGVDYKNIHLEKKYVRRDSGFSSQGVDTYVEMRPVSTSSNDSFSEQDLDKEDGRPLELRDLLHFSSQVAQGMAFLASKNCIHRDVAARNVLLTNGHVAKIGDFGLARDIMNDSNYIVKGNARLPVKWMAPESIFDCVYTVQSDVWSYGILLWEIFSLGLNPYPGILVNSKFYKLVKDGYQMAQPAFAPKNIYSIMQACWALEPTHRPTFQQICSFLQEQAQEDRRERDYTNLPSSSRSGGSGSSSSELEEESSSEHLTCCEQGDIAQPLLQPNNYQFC
Procedure: Fluorescence Polarization Competition Immunoassay
The assay buffer used was 100 mM 4-(2-hydroxyethyl)piperazine 1-ethanesulfonic acid (HEPES), pH 7.5, 1 mM 1,4-dithio-DL-threitol (DTT), 0.01% (v/v) Tween-20. Compounds were diluted in assay buffer containing 4% dimethylsulfoxide (DMSO) just prior to the assay. […] The kinase reaction was initiated by adding 2 μL of 5 mM ATP (Sigma) in assay buffer. […] Control reactions were ran in each plate: in positive and negative control wells, assay buffer (made 4% in DMSO) was substituted for the compound; in addition, positive control wells received 1.2 μL of 50 mM ethylenediaminetetraaceticacid (EDTA).
The plates were incubated at room temperature for 45 min. At the end of the incubation, the reaction was quenched with 1.2 μL of 50 mM EDTA (EDTA was not added to the positive control wells at this point; see above). Following a 5-min incubation, each well received 10 μL of a 1:1:3 mixture of anti-phosphotyrosine antibody, 10×, PTK green tracer, 10× (vortexed), FP dilution buffer, respectively (all from PanVera, cat. #P2837). The plate was covered, incubated for 30 min at room temperature and the fluorescence polarization was read on the Analyst. The instrument settings were: 485 nm excitation filter; 530 nm emission filter; Z height: middle of well; G factor: 0.93. […] The reported IC50 values are averages of three independent measurements.

Compound | IC50 [1] [nM] | IC50 (c-fms) [nM]
CC1(c2ccc(NC(=O)c3ncc(C#N)[nH]3)c(C3=CCCCC3)c2)OCCO1 [Example 1, 5-Cyano-1H-imidazole-2-carboxylic acid [2-cyclohex-1-enyl-4-(2-methyl-[1,3]dioxolan-2-yl)-phenyl]-amide] | 48 | 3.4
CC1(c2ccc(NC(=O)c3nc(C#N)c[nH]3)c(C3=CCCCC3)c2)OCCCO1 [Example 2, 4-Cyano-1H-imidazole-2-carboxylic acid [2-cyclohex-1-enyl-4-(2-methyl-[1,3]dioxan-2-yl)-phenyl]-amide] | 44 | 3.9
